Assay results from patent publication US12503440B2, “Nitroxoline derivative, preparation method therefor, and use thereof” (Jiangsu Yahong Meditech Co., Ltd., priority 2020, dated 2025).
Converted amounts (≈) assume the structure as drawn.

Assays:
Format in all cases: cell-based
[1] = test system: Bladder cancer cell line UM-UC-3; experiment: Inhibitory activity on cancer cells, CellTiter-Glo viability, 72 h; conditions: Homo sapiens, UMUC3, UM-UC-3, 72 h
From the text: (§1) • HUVEC (purchased from Allcells Biological Technology (Shanghai) Co., Ltd.); UM-UC-3 (ATCC); LNCaP Clone FGC (ATCC); RM-1 (purchased from Nanjing Cobioer Biosciences Co., Ltd.) 2. Reagents • Endothelial cell complete medium (Allcells, H-004) • Medium RPMI1640 (ATCC, 30-2001) • Medium EMEM (ATCC, 30-2003) • Medium DMEM (Gibco, 12430-054) • Fetal bovine serum (Gibco, 10091148) • Penicillin-streptomycin double anti-body (Gibco, S110JV) • DPBS (Gibco, 14190-144) • CellTiter-Glo® kit (Promega, G7573) • Trypsin (0.25%), phenol red (Gibco, 25200-056) • DMSO (Sigma, D2650) 3. Instruments • Biological safety cabinet (Suzhou Antai Airtech Co., Ltd., BSC-1300A II) • Inverted microscope (Nikon, CKX53) • Automated cell counter (Life Technologies, countess II) • Multifunctional microplate reader (Biotek, H1FM) • Shaker (Hangzhou Allsheng Instruments Co., Ltd., OS-100) • GraphPad Prism 5.0 software • XLFIT 5.3 (Inforstack Shanghai Co., Ltd.) 4. Test Method
(§2) In this test method, the following experiments were carried out in a biological safety cabinet, and the specific steps are as follows: • (1) On the first day, the cells were seeded in a 96-well plate, and the previous medium was poured off. 5 mL of DPBS was added to wash the cells, and then removed by a pipette. Then, 1 mL of trypsin (0.25%) was added, and the plate was placed in a cell culture incubator at 37° C., 5% CO2 for digestion, and taken out after about 2 to 5 minutes. New corresponding medium was added, and pipetted to resuspend the cells evenly, and the cells were then counted with an automated cell counter.
(§3) The digestion was observed using an inverted microscope.
(§4) Regarding to HUVEC, the medium used was endothelial cell complete medium; regarding to UM-UC-3, the medium used was 89v % EMEM+10v % fetal bovine serum+1 v % penicillin-streptomycin double anti-body; regarding to LNcaP Clone FGC, the medium used was 89v % RPM11640+10v % fetal bovine serum+1 v % penicillin-streptomycin double anti-body; and regarding to RM-1, the medium used was 89v % DMEM+10v % fetal bovine serum+1v % penicillin-streptomycin double anti-body. • (2) HUVEC cells were seeded in columns 1 to 11 of a 96-well plate (Corning, Cat. No. 3610) at a density of 2000 cells per well in 100 μL of medium, and the medium free of cell was added to the wells of column 12. The other three types of cells were also seeded, wherein UM-UC-3 and RM-1 cells were seeded at a density of 3000 cells per well, and LNCap Clone FGC cells were seeded at a density of 5000 cells per well. Then, the plate was placed in an incubator at 37° C., 5% CO2 for 24 hours. • (3) On the second day, the compounds of the present invention and the reference drug nitroxoline (obtained according to the preparation method disclosed in the prior art) were diluted in gradient (2.5 folds, started at 100 μmol) to obtain 8 dose points (there were a total of 8 columns of wells; the first column of wells had the highest concentration, the concentration decreased in turn, and the last column of wells had the lowest concentration). 10 uL of the compound diluted in gradient was added to the 100 μL of cells in column 1 to column 10 with an 8-channel pipette. 10 μL of the corresponding medium containing 0.33v % DMSO was added to column 11 and column 12. The plate was incubated in an incubator at 37° C., 5% CO2 for 72 hours (note: column 11 was used as MAX well with cells and no compounds; and column 12 was used as MIN well with no cells and no compounds). • (4) After treating with the compounds of the present invention for 72 hours, the cell viability detection reagents in the above CellTiter-Glo® kit were added to the 96-well plate at 50 μL per well according to the instructions. […]

[2] = test system: Prostate cancer cell line LNcaP Clone FGC; experiment: as above; conditions: Homo sapiens
From the text: as §1, §2, §3, §4

Acinetobacter baumannii = experiment: Bacteriostatic activity, micro broth dilution MIC (CLSI); conditions: 20 hours; for MIC50 / MIC90: clinical strains (carbapenem-resistant), CAMHB; for MIC50: read-out: Acinetobacter baumannii Clinical strain MIC50; for MIC90: read-out: Acinetobacter baumannii Clinical strain MIC90; for MIC: standard strain ATCC19606, CAMHB
Protocol: (§5) The purpose of this test is to determine the bacteriostatic activity of the compounds of the present invention against a representative panel of strains (Gram-negative bacteria: […] ATCC 25922, Acinetobacter baumannii ATCC 19606; Gram-positive bacteria: Staphylococcus aureus ATCC29213). Bacteriostatic activity was determined by minimum inhibitory concentration (MIC), MIC50, MIC90. This test was entrusted to Shanghai Junj Lab Co., Ltd. Except for the test drugs, all other test materials were provided by Shanghai Junj Lab Co., Ltd.
(§6) The tested bacteria were several strains of clinically isolated carbapenem-resistant Escherichia coli, several strains of carbapenem-resistant Acinetobacter baumannii, several strains of methicillin-resistant Staphylococcus aureus, and several strains of sensitive Staphylococcus aureus. Duplicate strains isolated from the same patient were eliminated. There were also three quality control strains Escherichia coli ATCC 25922, Acinetobacter baumannii ATCC 19606, and Staphylococcus aureus ATCC 29213. The activity test of each compound was carried out on one or more strains of each of the above test bacteria.
(§7) According to the recommendations of relevant documents of the American Clinical and Laboratory Standards Institute (CLSI), the micro broth dilution method was used to determine the MIC of the compounds of the present invention against clinically isolated strains. The culture solution free of drug was used as the test bacteria positive control, the culture solution free of bacterial solution was used as the drug negative control, and the culture solution free of drug solution and bacterial solution was used as the blank control. • 4.1 Formulation of antibacterial drug: All the compounds of the present invention were dissolved in DMSO. The drug concentration range was 128 mg/L-0.06 mg/L. Specific method: The compounds of the present invention were successively diluted by 1:1 with DMSO to obtain an intermediate series with a range of 25600 mg/L-12.5 mg/L. 30 μL of solution from each tube of the intermediate series of each compound was added to a 3 mL/tube series of single broth tube, and mixed well to obtain an intermediate series with a range of 256 mg/L to 0.125 mg/L. The diluted series solution was added to the drug susceptibility plate line by line, 50 μL of solution per well. All ranges became investigated ranges after being mixed with an equal volume of bacterial solution: 128-0.06 mg/L. • 4.2 Culture medium: The drug susceptibility test used cation adjusted Mueller-Hinton broth (CAMHB). • 4.3 Amount of inoculum: The test bacteria cultured overnight were adjusted to 0.5 McFarland turbidity by the direct colony suspension method, and diluted 100 folds, the final inoculum amount was 10^5 CFU/mL. • 4.4 Culture conditions: The test bacteria were cultured at 35±2° C. for 20 hours in air. 5. Interpretation and Judgment of Results
(§8) The drug susceptibility test results were interpretated by reference to CLSI 2019 edition M100 29th edition criteria.
(§9) The results of drug susceptibility test were statistically analyzed by WHONET version 5.6 software.
(§10) The culture solution free of bacterial solution was used as the drug negative control, and the culture solution free of drug solution and bacterial solution was used as the blank control, wherein no bacteria grew in both solutions.

Escherichia coli = experiment: as above; conditions: 20 hours; for MIC50 / MIC90: clinical strains (carbapenem-resistant), CAMHB; for MIC50: read-out: Escherichia coli Clinical strain MIC50; for MIC90: read-out: Escherichia coli Clinical strain MIC90; for MIC: standard strain ATCC25922, CAMHB
Protocol: as §5, §6, §7, §8, §9, §10

Staphylococcus aureus = experiment: as above; conditions: 20 hours; for MIC50 / MIC90: clinical strains (methicillin-resistant and sensitive), CAMHB; for MIC50: read-out: Staphylococcus aureus Clinical strain MIC50; for MIC90: read-out: Staphylococcus aureus Clinical strain MIC90; for MIC: standard strain ATCC29213, CAMHB
Protocol: as §5, §6, §7, §8, §9, §10

[3] = test system: Mouse prostate cancer cell line RM-1; experiment: Inhibitory activity on cancer cells, CellTiter-Glo viability, 72 h; conditions: RM-1, 72 h
From the text: as §1, §2, §3, §4

Structure (SMILES) | IC50 [1] [µM] | IC50 [2] [µM] | MIC50 (Escherichia coli) [µg/mL] | MIC90 (Escherichia coli) [µg/mL] | MIC (Escherichia coli) [µg/mL] | MIC50 (Staphylococcus aureus) [µg/mL] | MIC90 (Staphylococcus aureus) [µg/mL] | MIC (Staphylococcus aureus) [µg/mL] | also measured
O=[N+]([O-])c1ccc(O)c2nccc(N3CCOCC3)c12 [Example 5, 4-morpholino-5-nitroquinolin-8-ol] | 5.5 | 5.5 |  |  |  |  |  |  | 
O=[N+]([O-])c1ccc(O)c2nccc(-c3cccnc3)c12 [Example 17, 5-nitro-4-(pyridin-3-yl)quinolin-8-ol] | 4.9 | 4.8 |  |  |  |  |  |  | IC50 [3]: 2.8 µM
O=[N+]([O-])c1ccc(O)c2nccc(C3CCCCC3)c12 [Example 25, 4-cyclohexyl-5-nitroquinolin-8-ol] |  |  | 32 (≈ 118 µM) | 32 (≈ 118 µM) | 32 (≈ 118 µM) | 4 (≈ 14.7 µM) | 4 (≈ 14.7 µM) | 4 (≈ 14.7 µM) | MIC50 (Acinetobacter baumannii): 32 µg/mL (≈ 118 µM); MIC90 (Acinetobacter baumannii): 32 µg/mL (≈ 118 µM); MIC (Acinetobacter baumannii): 32 µg/mL (≈ 118 µM)

Continued, in another order:

IC50 [1] [µM] | IC50 [2] [µM] | MIC50 (Escherichia coli) [µg/mL] | MIC90 (Escherichia coli) [µg/mL] | MIC (Escherichia coli) [µg/mL] | MIC50 (Staphylococcus aureus) [µg/mL] | MIC90 (Staphylococcus aureus) [µg/mL] | MIC (Staphylococcus aureus) [µg/mL] | Structure (SMILES) | also measured
5 | 3.8 |  |  |  |  |  |  | O=[N+]([O-])c1ccc(O)c2nccc(-c3ccncc3)c12 [Example 14, 5-nitro-4-(pyridin-4-yl)quinolin-8-ol] | 
 |  | 64 (≈ 244 µM) | 128 (≈ 488 µM) | 64 (≈ 244 µM) | 2 (≈ 7.63 µM) | 4 (≈ 15.3 µM) | 4 (≈ 15.3 µM) | CCOC(=O)c1cnc2c(O)ccc([N+](=O)[O-])c2c1 [Example 32, ethyl 8-hydroxy-5-nitroquinoline-3-carboxylate] | MIC50 (Acinetobacter baumannii): 64 µg/mL (≈ 244 µM); MIC90 (Acinetobacter baumannii): 128 µg/mL (≈ 488 µM); MIC (Acinetobacter baumannii): 32 µg/mL (≈ 122 µM)
3 |  |  |  |  |  |  |  | O=[N+]([O-])c1ccc(O)c2nccc(N3CCNCC3)c12 [Example 10, 5-nitro-4-(piperazin-1-yl)quinolin-8-ol] | 
 |  | 64 (≈ 222 µM) | 64 (≈ 222 µM) | 64 (≈ 222 µM) | 1 (≈ 3.47 µM) | 1 (≈ 3.47 µM) | 2 (≈ 6.94 µM) | O=C(OCC1CC1)c1cnc2c(O)ccc([N+](=O)[O-])c2c1 [Example 39, cyclopropylmethyl 8-hydroxy-5-nitroquinoline-3-carboxylate] | 
7 |  |  |  |  |  |  |  | O=[N+]([O-])c1ccc(O)c2nccc(N3CCCCC3)c12 [Example 6, 5-nitro-4-(piperidin-1-yl)quinolin-8-ol] | 
